Results published in patent publication US20090197800A1, “Insulin Receptor Binding Peptides with Non-Insulin Gene Activation Profiles and Uses Thereof” (Novo Nordisk A/S, priority 2004, published 2009).
Ends that are not written are not given here.

Legend:
[1] = test system: human SGBS adipocytes; experiment: cDNA microarray analysis of total RNA from SGBS adipocytes treated with S597 or human insulin; format: cell-based; details: 30 nM, 18 hours, vs vehicle
Method: To compare the transcriptional effects of human insulin (HI) and an exemplary IRBP, IRBP S597, cDNA microarray analyses were performed on total RNA from human SGBS adipocytes treated with S597 (30 nM) or human insulin (30 nM) for 18 hours. The microarray hybridizations were carried out as dual color (Cy3/Cy5) hybridizations comparing vehicle treatments to insulin or S597 treatments. Three individual RNA samples from vehicle, S597, and insulin treated cells were compared, and all hybridizations were repeated with reversed dye combination (e.g. vehicle (Cy3) vs. S597 (Cy5) repeated as vehicle (Cy5) vs. S597 (Cy3)). The specific steps employed in this experimental analysis of the effects of HI versus IRBP S597 are described in the following paragraphs.
(§1) A human preadipocyte cell strain derived from subcutaneous adipose tissue of an infant with Simpson-Golabi-Behmel syndrome (SGBS) was plated out in 6 well plates and grown to confluence in DMEM/F12 medium (Gibco) containing 1% biotin, 1% panthothenic acid, 1% penicillin (10000 U)/streptomycin (10000 U), and 10% Fetal bovine serum (Gibco-Invitrogen, Carlsbad Calif. (USA)—“Gibco”). Differentiation of SGBS preadipocytes into adipocytes was induced by adding DMEM/F12 medium (Gibco) containing 1% biotin, 1% panthothenic acid, 1% penicillin (10,000 U)/streptomycin (10,000 U), 100 nM cortisol, […] triiodothyronine, 20 nM insulin, 250 nM dexamethasone (first 6 days), 500 μM IBMX (first 6 days), 2 μM rosiglitazone (first 3 days) and letting cells differentiate for 14 days.
(§2) Before stimulation with insulin and IRBP S597 the differentiated adipocytes were cultured in DMEM/F12 medium (Gibco) containing 1% biotin, 1% panthothenic acid, 1% penicillin (10,000 U)/streptomycin (10,000 U), 100 nM cortisol, and […] triiodothyronine for 2 days. Insulin and S597 (1, 3, 10, 30, 100 nM) were separately added to cells in DMEM/F12 medium (Gibco) containing 1% biotin, 1% panthothenic acid, 1% penicillin (10,000 U)/streptomycin (10,000 U), 100 nM cortisol, 200 pM triiodothyronine, and 0.1% BSA. Following stimulation for 18 h (18 hours), the cells were washed twice in PBS and 1.3 ml SV RNA-lysis buffer (Promega, Madison, Wis.) was added to each well.
(§3) Total RNA was isolated and DNase treated using SV96 total RNA isolation system (Promega, Madison, Wis.) following manufacturer's instructions.
Incyte Easy-To-Spot™ PCR-products (ETS1220 comprising ˜9000 human clones) (Amersham Biosciences) dissolved in 50% DMSO were spotted on to Corning Ultra Gaps slides (Corning Inc., Corning, N.Y.) at 55% relative humidity using the Molecular Dynamics Gen. III microarray spotter (Amersham Biosciences, Buckinghamshire, UK). All slides were baked at 80° C. for 4 h. Approximately 250 ng of total RNA from cells treated with vehicle, human insulin (30 nM) and S597 (30 nM) were used for synthesis of complementary RNA (amplified RNA (aRNA)) using Amino-allyl MessageAmp™ aRNA kit (Ambion, Austin, Tex.). Amino-allyl cDNA was synthesized from 1.5 μg of each RNA-amplification. The aRNA was incubated with random primer at 70° C. for 10 min. and subsequently chilled on ice for 30 sec. The primer annealed RNA was incubated with reaction mixture (1× Superscript II buffer (Life Technologies, Taastrup, Denmark), 10 mM DTT, 200 μM dGAT(−TP) 100 μM dCTP, 100 μM Cy-3/Cy-5-dCTP (Amersham Biosciences), and 200 units of Superscript II reverse transcriptase (Life Technologies, Taastrup, Denmark) at 42° C. for 2 h in a final volume of 20 μl. The RNA template was removed by alkaline denaturation (incubation with 2 μl 2.5 M NaOH at 37° C. for 15 min.). Amino-allyl labeled probes were purified using a Qiagen PCR purification kit (Qiagen). The amino-allyl cDNA was resuspended in 0.1 M NaHCO3 pH 9.0 and coupled to Cy3/Cy5 NHS-ester (Amersham Biosciences) for 1 h at RT in the dark. Unreacted ester groups were quenched by addition of hydroxylamine. Cy3- and Cy5-labeled cDNA was purified using Qiagen PCR purification kit (Qiagen). […]

[2] = test system: SGBS adipocytes; experiment: quantitative RT-PCR of cholesterol biosynthesis genes in SGBS adipocytes; format: cell-based, human; details: 18 h; for expression level of HMG-CoA synthase 1 (direction of regulation) / expression level of mevalonate (diphospho) decarboxylase (direction of regulation): quantitative RT-PCR, dose dependent, SGBS adipocytes, FIG. 2
Method: as §1, §2, §3
(§4) cDNA was prepared from 100 ng of total RNA from each of the treatments (n=3) using random primers and TaqMan® Reverse (Applied Biosystems, Foster City, Calif. (USA)).
(§5) Transcription reagents were used/applied according to the manufacturer's instructions. Quantitative PCR was performed on each of the cDNA samples (10-fold dilutions of cDNA) using TaqMan® PCR core reagents (Applied Biosystems) on an ABI PRISM® 7000 Sequence Detection System (Applied Biosystems). Primers and FAM-labeled-probes for human and rat HMG-CoA reductase (HMGCR), mevalonate (diphospho) decarboxylase (MVD), HMG-CoA synthase 1 (HMGCS1), 18S rRNA, rat fatty acid synthase (FAS), and rat glucose-6-phosphate catalytic subunit (G6PC) were ordered as Assays-on-Demand (Applied Biosystems).
(§6) Probe sequences for these assays were as follows: HMGCR (human AC-[…] (assay Hs00168352_m1) (SEQ ID NO: 34), rat GCAC-[…] (assay Rn00565598_m1) (SEQ ID NO: 35)), MVD (human […] (assay Hs00159403_m1) (SEQ ID NO: 36), rat […] (assay Rn00579216_m1) (SEQ ID NO: 37)), HMGCS1 (human […] (assay Hs00266810_m1) (SEQ ID NO: 38), rat […] (assay Rn00568579_m1) (SEQ ID NO: 39)), 18S rRNA ([…]; assay HS99999901_s1) (SEQ ID NO: 40), FAS (rat […] (assay Rn00569117_m1) (SEQ ID NO: 41)), and G6PC (rat […] (assay Rn00565347_m1) (SEQ ID NO: 42)). Data were analyzed using ABI Prism 7000 SDS software (version 1.0; Applied Biosystems), and expression levels for HMGCR, MVD, HMGCS1, FAS, and were normalized to the 18S rRNA levels.

[3] = test system: primary rat hepatocytes; experiment: quantitative RT-PCR of mRNA expression in primary rat hepatocytes; format: cell-based; details: 18 h; for effect on HMGCR mRNA level / effect on HMGCS1 mRNA level / effect on MVD mRNA level: 5 doses (0.1, 0.3, 1, 10, 100 nM), FIG. 3; for mRNA expression of fatty acid synthase (direction of regulation) / mRNA expression of glucose-6-phosphate catalytic subunit (direction of regulation): FIG. 4
Method: Male Wistar rats (˜200 g) were anaesthetized with a freshly prepared mixture (1:1) of Hyp-norn (0.05 mg/ml fentalyl/2.5 mg/ml fluabizone) and Dormicum (1.25 mg/ml midazolam) administered subcutaneously (1 ml/kg). Hepatocytes were isolated from rats fed ad libitum by a two-step perfusion technique essentially as described by Seglen, Biochem. J. (1999) 342 (545-550). Cell viability, assessed by Trypan Blue exclusion, was consistently greater than 80%. Cells were plated on to collagen-coated six-well plates in basal medium (Medium 199, 5.5 mM glucose supplemented 100 nM decadron, 1% penicillin (10,000 U)/streptomycin (10,000 U), and 1 nM insulin) with 4% fetal calf serum at a cell density of 1.2*10^6 cells/well. The medium was replaced 1 h after initial plating in order to remove dead cells. […] Following stimulation for 18 h, the cells were washed twice in PBS and 1.3 ml SV RNA-lysis buffer (Promega, Madison, Wis.) were added to each well.
as §3, §4, §5, §6

[4] = quantitative RT-PCR, 1, 3, 10, 30, 100 nM, normalized to 18S, FIG. 1

Row | HMG-CoA reductase (HMGCR) gene upregulation [1] | mevalonate (diphospho) decarboxylase (MVD) gene upregulation [1] | dose dependant upregulation of HMG-CoA reductase mRNA [2, 4] | Substance | HMG-CoA reductase (HMGCR) gene downregulation [1] | HMG-CoA synthase 1 (HMGCS1) gene downregulation [1] | mevalonate (diphospho) decarboxylase (MVD) gene downregulation [1] | dose dependant downregulation of HMG-CoA reductase mRNA [2, 4] | expression level of HMG-CoA synthase 1 (direction of regulation) [2] | expression level of mevalonate (diphospho) decarboxylase (direction of regulation) [2] | effect on HMGCR mRNA level [3] | effect on HMGCS1 mRNA level [3] | effect on MVD mRNA level [3] | mRNA expression of fatty acid synthase (direction of regulation) [3] | mRNA expression of glucose-6-phosphate catalytic subunit (direction of regulation) [3] | HMG-CoA synthase 1 (HMGCS1) gene upregulation [1]
1 | – | – | – | Ac-SLEEEWAQIECEVYGRGCPSESFYDWFERQL (cysteine pairing not given here) [S597] | 2.1 fold | 1.4 fold | 2.5 fold | ~2 fold down | downregulated | downregulated | no significant changes | no significant changes | no significant changes | upregulation | downregulation | –
2 | 2.3 fold | 2.1 fold | ~3 fold up | human insulin | – | – | – | – | upregulated | upregulated | clear upregulating effect | clear upregulating effect | clear upregulating effect | upregulation | downregulation | 2.0 fold
